Measurements as given in patent publication US7022691B2, “Inhibitors of serine and metallo-β-lactamases” (priority 2002, dated 2006).
Structures can show the parent of a compound that is named as a salt. Where two headings read alike, the source gives them in different places.

How the values were obtained:
[1] = biological target: TEM-1 (class A) serine β-lactamase (Escherichia coli, UniProt P62593); experiment: Inhibition of TEM-1 β-lactamase (nitrocefin hydrolysis); type: biochemical; conditions: 4 min incubation of inhibitor and enzyme (0.1 to 1 μM), substrate nitrocefin, 480 nm; error ±10%
Description: (§1) Representative compounds of the invention were evaluated as inhibitors of two serine β-lactamases: Enterobacter cloacae P99 (class C), TEM-1 (class A), as well as two class B enzymes: the L1 metallo-β-lactamse derived from Stenotrophomonas maltophilia) and the metallo-β-lactamase derived from the Bacillus cereus microorganism. The IC50 value of each compound was determined as follows. Assay method involves 4 min incubation of a solution of inhibitor and enzyme (0.1 to 1 μM in enzyme), followed by transfer of an aliquot into a dilute solution of the substrate nitrocefin. Hydrolysis is monitored spectrophotometrically at 480 nm for 1 min.

[2] = biological target: Enterobacter cloacae P99 (class C) serine β-lactamase (Enterobacter cloacae, UniProt P05364); experiment: biochemical
Description: as §1

[3] = biological target: BC1 metallo-β-lactamase (class B) (Bacillus cereus, UniProt P04190); experiment: biochemical
Description: as §1, with “min. The rate is constant throughout this period. Error is ±10%, based on multiple experiments.” for “min.”

class B β-lactamases = experiment: Inhibition of class B β-lactamases, summary in words; type: biochemical; conditions: summary of Table 1 in words
Description: as §1, with “min. The rate is constant throughout this period. Error is ±10%, based on multiple experiments.” for “min.”

[4] = biological target: L1 metallo-β-lactamase (class B) (Stenotrophomonas maltophilia, UniProt P52700); experiment: Inhibition of L1 metallo-β-lactamase (nitrocefin hydrolysis); type: biochemical
Description: as §1, with “min. The rate is constant throughout this period. Error is ±10%, based on multiple experiments.” for “min.”

[5] = test system: serine and metallo-β-lactamases; experiment: Inhibition of serine and metallo-β-lactamases, summary in words; type: biochemical; conditions: summary of Table 1 in words
Description: as §1

[6] = Inhibition IC50, P99 (Class C) (Serine), 4 min incubation of inhibitor and enzyme (0.1 to 1 μM), substrate nitrocefin, 480 nm, error ±10%
[7] = 4 min incubation of inhibitor and enzyme (0.1 to 1 μM), substrate nitrocefin, 480 nm, error ±10%, read-out: Inhibition IC50, L1 (Class B) (Metallo)
[8] = 4 min incubation of inhibitor and enzyme (0.1 to 1 μM), substrate nitrocefin, 480 nm, error ±10%, read-out: Inhibition IC50, P99 (Class C) (Serine)
[9] = read-out: Inhibition IC50, BC1 (Class B) (Metallo), 4 min incubation of inhibitor and enzyme (0.1 to 1 μM), substrate nitrocefin, 480 nm, error ±10%

Sequence of TEM-1 (class A) serine β-lactamase (P62593 24-286 limits assumed): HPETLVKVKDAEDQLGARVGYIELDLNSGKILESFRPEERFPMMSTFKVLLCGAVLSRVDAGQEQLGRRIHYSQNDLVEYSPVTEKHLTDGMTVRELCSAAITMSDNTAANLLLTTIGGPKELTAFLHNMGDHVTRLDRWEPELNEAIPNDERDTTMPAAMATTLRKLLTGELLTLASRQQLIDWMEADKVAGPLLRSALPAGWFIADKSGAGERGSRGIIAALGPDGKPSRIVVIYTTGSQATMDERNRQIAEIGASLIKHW
Sequence of BC1 metallo-β-lactamase (class B) (P04190 31-257): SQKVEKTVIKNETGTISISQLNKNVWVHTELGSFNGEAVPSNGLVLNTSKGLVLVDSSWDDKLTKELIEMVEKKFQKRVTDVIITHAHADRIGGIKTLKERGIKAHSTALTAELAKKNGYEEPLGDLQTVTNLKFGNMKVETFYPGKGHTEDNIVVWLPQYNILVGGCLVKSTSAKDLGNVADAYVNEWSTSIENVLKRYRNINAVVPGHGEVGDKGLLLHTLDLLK
Sequence of Enterobacter cloacae P99 (class C) serine β-lactamase (P05364 21-381): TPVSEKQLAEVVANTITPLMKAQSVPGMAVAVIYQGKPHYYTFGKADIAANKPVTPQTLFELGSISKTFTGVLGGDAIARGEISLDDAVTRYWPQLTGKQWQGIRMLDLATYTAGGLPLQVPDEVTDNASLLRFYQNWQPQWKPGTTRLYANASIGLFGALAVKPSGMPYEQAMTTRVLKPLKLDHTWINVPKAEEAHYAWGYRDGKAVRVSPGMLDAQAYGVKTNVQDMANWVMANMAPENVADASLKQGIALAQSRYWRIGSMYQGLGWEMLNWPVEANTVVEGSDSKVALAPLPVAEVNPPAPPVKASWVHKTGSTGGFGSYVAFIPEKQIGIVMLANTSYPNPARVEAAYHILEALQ
Sequence of L1 metallo-β-lactamase (class B) (P52700 34-290): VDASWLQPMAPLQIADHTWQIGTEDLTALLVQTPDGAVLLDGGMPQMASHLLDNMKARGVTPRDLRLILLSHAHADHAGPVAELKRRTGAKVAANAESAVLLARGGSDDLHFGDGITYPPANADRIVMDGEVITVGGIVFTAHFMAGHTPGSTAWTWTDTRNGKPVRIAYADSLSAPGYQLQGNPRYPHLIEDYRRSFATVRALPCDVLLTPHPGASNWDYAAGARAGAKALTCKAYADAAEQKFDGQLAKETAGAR

## CC1(C)S[C@@H]2C(CO)C(=O)N2[C@H]1C(=O)O (single isomer, unassigned) [Compound 28, Sodium Salt of 6α-(hydroxymethyl)penicillinate, reference compound]
[1]
  IC50: 275 µM
[2]; [6]
  IC50: 96.2 µM
[3]
  IC50: > 2000 µM
Class B β-lactamases
  ability to inhibit the class B β-lactamases: none of the latter, previously known, 6-(hydroxymethyl)penicillinates possess such ability
[4]
  IC50: > 2000 µM

## CC1(C)[C@H](C(=O)[O-])N2C(=O)[C@H](CS)[C@H]2S1(=O)=O.[Na+] [Compound 25, Sodium Salt of 6α-(mercaptomethyl)penicallin acid 1,1-dioxide]
[1]
  IC50: 51.7 µM
[2]
  IC50: 7.5 µM
[3]
  IC50: 770 µM
Class B β-lactamases
  ability to inhibit the class B β-lactamases: possess the ability to inhibit the class B β-lactamases
[4]; [7]
  IC50: 0.82 µM

## CC1(C)[C@H](C(=O)[O-])N2C(=O)[C@@H](CS)[C@H]2S1(=O)=O.[Na+] [Compound 13, Sodium Salt of 6β-(mercaptomethyl)penicallin acid 1,1-dioxide]
[1]
  IC50: 6.8 µM
[2]; [6]
  IC50: 10.5 µM
[3]
  IC50: 64 µM
[5]
  broad spectrum inhibitory activity: excellent broad spectrum inhibitory activity
Class B β-lactamases
  ability to inhibit the class B β-lactamases: possess the ability to inhibit the class B β-lactamases
[4]; [7]
  IC50: 0.13 µM

## CC1(C)[C@H](C(=O)O)N2C(=O)C(CO)C2S1(=O)=O (single isomer, unassigned) [Compound 15, Sodium Salt of 6β-(hydroxymethyl)penicillinate-1,1-dioxide, reference compound]
[2]; [8]
  IC50: 3.9 µM
[3]
  IC50: > 2000 µM
Class B β-lactamases
  ability to inhibit the class B β-lactamases: none of the latter, previously known, 6-(hydroxymethyl)penicillinates possess such ability
[4]
  IC50: > 2000 µM

## CC1(C)S[C@@H]2C(CS)C(=O)N2[C@H]1C(=O)[O-].[Na+] (stereo partly drawn) [Compound 9, Sodium Salt of 6β-(mercaptomethyl)penicillanic acid]
[1]
  IC50: 601 µM
[2]; [8]
  IC50: 0.1 µM
[3]
  IC50: 12.3 µM
Class B β-lactamases
  ability to inhibit the class B β-lactamases: possess the ability to inhibit the class B β-lactamases
[4]; [7]
  IC50: 72.2 µM

## CC1(C)S[C@@H]2[C@@H](CS)C(=O)N2[C@H]1C(=O)[O-].[Na+] [Compound 21, Sodium Salt of 6α-(mercaptomethyl)penicillinate]
[1]
  IC50: 648 µM
[2]; [8]
  IC50: 3.75 µM
[3]
  IC50: 7.6 µM
Class B β-lactamases
  ability to inhibit the class B β-lactamases: possess the ability to inhibit the class B β-lactamases
[4]; [7]
  IC50: 81.4 µM

## CC1(C)[C@H](C(=O)O)N2C(=O)C(CO)C2S1(=O)=O (single isomer, unassigned) [Compound 27, Sodium Salt of 6α-(hydroxymethyl)penicillinate-1,1-dioxide, reference compound]
[2]; [8]
  IC50: 10 µM
[3]; [9]
  IC50: > 2000 µM
Class B β-lactamases
  ability to inhibit the class B β-lactamases: none of the latter, previously known, 6-(hydroxymethyl)penicillinates possess such ability
[4]; read-out: Inhibition IC50, L1 (Class B) (Metallo), 4 min incubation of inhibitor and enzyme (0.1 to 1 μM), substrate nitrocefin, 480 nm, error ±10%
  IC50: > 2000 µM

## C[C@]1(Cn2ccnn2)[C@H](C(=O)O)N2C(=O)C[C@H]2S1(=O)=O [Tazobactam]
[3]
  IC50: > 2000 µM
[4]; [7]
  IC50: > 2000 µM

## CC1(C)S[C@@H]2C(CO)C(=O)N2[C@H]1C(=O)O (single isomer, unassigned) [Compound 16, Sodium Salt of 6β-(hydroxymethyl)penicillinate, reference compound]
[1]
  IC50: 752 µM
[2]; [6]
  IC50: 409 µM
[3]; [9]
  IC50: > 2000 µM
Class B β-lactamases
  ability to inhibit the class B β-lactamases: none of the latter, previously known, 6-(hydroxymethyl)penicillinates possess such ability
[4]; [7]
  IC50: > 2000 µM
